{"source": "patent US6403600B1", "about": "“Methoximinophenylacetic acid amides” (Bayer Aktiengesellschaft, priority 1998, dated 2002)"}
{"assay": "logP determination by HPLC (EEC-Directive 79/831 Annex V. A8)", "assay_type": "physicochemical", "details": "gradient method, acetonitrile/0.1% aqueous phosphoric acid"}
{"smiles": "CON=C(C(=O)N(C)SC(F)(Cl)Cl)c1ccccc1Oc1ncnc(Oc2ccc(SC(F)(F)F)cc2)c1F", "note": "[Example 139]", "logP": 5.6}
{"smiles": "CON=Cc1ccccc1Oc1ncnc(Oc2ccccc2C(=NOC)C(=O)N(C)SC(F)(Cl)Cl)c1F", "note": "[Example 140]", "logP": 5.03}
{"smiles": "CON=C(C(=O)N(C)SC(F)(Cl)Cl)c1ccccc1Oc1cc(Oc2cccc(Cl)c2C)ncn1", "note": "[Example 141]", "logP": 5.29}
{"smiles": "CON=C(C(C)=NOCc1ccccc1C(=NOC)C(=O)N(C)SC(F)(Cl)Cl)c1ccccc1", "note": "[Example 143]", "logP": 5.48}
{"smiles": "CON=C(C(=O)N(C)SC(F)(Cl)Cl)c1ccccc1OC(=O)c1c(F)cccc1F", "note": "[Example 144]", "logP": 4.41}
{"smiles": "CON=C(C(=O)N(C)SC(F)(Cl)Cl)c1ccccc1Oc1ncnc(OC)c1F", "note": "[Example 145]", "logP": 5.45}
{"smiles": "CON=C(C(=O)N(C)SC(F)(Cl)Cl)c1ccccc1OC", "note": "[Example 146]", "logP": 3.69}
